This note sets out measurements from ChEMBL document CHEMBL1833850, “Thailandepsins: bacterial products with potent histone deacetylase inhibitory activities and broad-spectrum antiproliferative activities” (J Nat Prod, 2011).

One assay has as its target Histone deacetylase 9 (Homo sapiens, UniProt Q9UKV0).
In a further assay the target is Histone deacetylase 4 (Homo sapiens, UniProt P56524).
The target of assay [1] is Histone deacetylase 1/Nuclear receptor corepressor 2 (Homo sapiens, UniProt Q13547). Kind of assay: Inhibition of recombinant human HDAC1/NCOR2 using Boc-L-Lys(epsilon-acetyl)-AMC as substrate by two-step fluorogenic assay. It counts as protein-complex assay.
Chain of Histone deacetylase 1/Nuclear receptor corepressor 2 (Q13547 whole entry): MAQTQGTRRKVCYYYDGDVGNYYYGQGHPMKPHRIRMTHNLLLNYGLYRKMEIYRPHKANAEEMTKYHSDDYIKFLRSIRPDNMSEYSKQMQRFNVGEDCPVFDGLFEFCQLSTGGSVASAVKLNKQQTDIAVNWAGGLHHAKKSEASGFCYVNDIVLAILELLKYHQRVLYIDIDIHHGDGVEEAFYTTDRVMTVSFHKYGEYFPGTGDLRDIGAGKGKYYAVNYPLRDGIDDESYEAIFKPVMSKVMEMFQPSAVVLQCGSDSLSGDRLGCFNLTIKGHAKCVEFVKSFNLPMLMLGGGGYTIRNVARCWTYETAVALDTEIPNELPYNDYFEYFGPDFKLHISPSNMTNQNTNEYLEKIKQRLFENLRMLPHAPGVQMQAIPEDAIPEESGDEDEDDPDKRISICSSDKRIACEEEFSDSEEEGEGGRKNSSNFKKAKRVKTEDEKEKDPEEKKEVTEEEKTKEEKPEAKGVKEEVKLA
Chain of Histone deacetylase 1/Nuclear receptor corepressor 2 (Q9Y618 whole entry, further chain): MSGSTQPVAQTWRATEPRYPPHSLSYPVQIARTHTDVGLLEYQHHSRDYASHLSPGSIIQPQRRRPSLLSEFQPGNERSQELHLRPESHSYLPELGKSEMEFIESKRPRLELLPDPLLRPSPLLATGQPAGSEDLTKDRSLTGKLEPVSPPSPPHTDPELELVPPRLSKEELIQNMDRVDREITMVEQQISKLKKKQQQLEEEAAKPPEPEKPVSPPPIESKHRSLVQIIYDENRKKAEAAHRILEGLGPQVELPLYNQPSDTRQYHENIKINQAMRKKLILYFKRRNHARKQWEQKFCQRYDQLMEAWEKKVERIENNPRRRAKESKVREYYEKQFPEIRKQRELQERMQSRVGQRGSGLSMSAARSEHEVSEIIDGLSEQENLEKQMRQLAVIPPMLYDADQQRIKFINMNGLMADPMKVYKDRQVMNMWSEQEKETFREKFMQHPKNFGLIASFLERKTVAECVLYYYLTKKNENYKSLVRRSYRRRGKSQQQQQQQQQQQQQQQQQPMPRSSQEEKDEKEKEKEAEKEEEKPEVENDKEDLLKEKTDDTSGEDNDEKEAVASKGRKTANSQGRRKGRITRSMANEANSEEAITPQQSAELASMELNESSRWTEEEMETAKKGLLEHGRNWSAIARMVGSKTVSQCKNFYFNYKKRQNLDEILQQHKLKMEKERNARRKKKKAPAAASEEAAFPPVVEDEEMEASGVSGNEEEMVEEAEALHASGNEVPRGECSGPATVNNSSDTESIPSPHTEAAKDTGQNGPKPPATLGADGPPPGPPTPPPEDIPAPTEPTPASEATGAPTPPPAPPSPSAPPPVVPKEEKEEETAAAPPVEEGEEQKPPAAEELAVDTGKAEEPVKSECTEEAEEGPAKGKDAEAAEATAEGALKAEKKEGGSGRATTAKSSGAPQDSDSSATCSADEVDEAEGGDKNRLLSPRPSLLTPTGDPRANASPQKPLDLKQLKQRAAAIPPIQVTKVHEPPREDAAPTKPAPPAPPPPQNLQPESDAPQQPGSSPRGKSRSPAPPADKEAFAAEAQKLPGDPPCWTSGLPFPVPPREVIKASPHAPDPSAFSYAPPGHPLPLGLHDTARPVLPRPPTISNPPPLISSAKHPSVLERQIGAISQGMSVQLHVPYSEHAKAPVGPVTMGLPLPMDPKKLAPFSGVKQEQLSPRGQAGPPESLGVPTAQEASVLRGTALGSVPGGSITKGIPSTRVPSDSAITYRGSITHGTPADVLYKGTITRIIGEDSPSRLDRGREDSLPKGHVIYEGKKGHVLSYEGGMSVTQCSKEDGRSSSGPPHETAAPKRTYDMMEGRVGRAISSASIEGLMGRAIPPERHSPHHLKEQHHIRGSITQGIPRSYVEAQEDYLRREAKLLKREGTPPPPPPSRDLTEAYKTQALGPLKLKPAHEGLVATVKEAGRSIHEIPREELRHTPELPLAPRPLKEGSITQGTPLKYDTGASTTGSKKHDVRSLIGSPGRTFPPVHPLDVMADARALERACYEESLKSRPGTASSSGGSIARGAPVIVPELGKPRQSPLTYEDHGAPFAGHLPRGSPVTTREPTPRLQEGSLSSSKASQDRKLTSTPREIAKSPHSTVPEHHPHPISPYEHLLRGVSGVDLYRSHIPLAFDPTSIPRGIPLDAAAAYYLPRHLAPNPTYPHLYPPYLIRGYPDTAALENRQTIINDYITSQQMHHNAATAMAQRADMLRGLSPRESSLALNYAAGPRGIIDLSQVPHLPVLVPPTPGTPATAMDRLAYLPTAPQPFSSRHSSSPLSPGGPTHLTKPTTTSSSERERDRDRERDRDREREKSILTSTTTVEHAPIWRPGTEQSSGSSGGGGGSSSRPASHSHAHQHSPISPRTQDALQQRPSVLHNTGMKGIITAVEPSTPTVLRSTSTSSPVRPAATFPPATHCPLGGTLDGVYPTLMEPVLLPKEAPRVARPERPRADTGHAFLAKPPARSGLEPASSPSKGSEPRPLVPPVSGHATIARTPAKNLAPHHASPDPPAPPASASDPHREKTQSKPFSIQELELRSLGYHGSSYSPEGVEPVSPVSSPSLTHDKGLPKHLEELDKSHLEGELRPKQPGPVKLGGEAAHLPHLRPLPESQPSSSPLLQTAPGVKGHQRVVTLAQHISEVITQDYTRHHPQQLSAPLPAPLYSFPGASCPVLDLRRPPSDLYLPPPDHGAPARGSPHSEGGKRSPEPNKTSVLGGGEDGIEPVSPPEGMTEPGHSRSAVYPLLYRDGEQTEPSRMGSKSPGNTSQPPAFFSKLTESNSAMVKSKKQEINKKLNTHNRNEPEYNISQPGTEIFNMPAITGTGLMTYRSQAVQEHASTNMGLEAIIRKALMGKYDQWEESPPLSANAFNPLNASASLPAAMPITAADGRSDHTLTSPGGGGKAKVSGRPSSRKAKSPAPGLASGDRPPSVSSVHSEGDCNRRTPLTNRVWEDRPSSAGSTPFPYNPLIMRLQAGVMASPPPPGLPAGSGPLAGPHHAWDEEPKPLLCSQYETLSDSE
Another assay deals with T1, Histone deacetylase 7 (Homo sapiens, UniProt Q8WUI4).
T1 sequence (Q8WUI4 whole entry): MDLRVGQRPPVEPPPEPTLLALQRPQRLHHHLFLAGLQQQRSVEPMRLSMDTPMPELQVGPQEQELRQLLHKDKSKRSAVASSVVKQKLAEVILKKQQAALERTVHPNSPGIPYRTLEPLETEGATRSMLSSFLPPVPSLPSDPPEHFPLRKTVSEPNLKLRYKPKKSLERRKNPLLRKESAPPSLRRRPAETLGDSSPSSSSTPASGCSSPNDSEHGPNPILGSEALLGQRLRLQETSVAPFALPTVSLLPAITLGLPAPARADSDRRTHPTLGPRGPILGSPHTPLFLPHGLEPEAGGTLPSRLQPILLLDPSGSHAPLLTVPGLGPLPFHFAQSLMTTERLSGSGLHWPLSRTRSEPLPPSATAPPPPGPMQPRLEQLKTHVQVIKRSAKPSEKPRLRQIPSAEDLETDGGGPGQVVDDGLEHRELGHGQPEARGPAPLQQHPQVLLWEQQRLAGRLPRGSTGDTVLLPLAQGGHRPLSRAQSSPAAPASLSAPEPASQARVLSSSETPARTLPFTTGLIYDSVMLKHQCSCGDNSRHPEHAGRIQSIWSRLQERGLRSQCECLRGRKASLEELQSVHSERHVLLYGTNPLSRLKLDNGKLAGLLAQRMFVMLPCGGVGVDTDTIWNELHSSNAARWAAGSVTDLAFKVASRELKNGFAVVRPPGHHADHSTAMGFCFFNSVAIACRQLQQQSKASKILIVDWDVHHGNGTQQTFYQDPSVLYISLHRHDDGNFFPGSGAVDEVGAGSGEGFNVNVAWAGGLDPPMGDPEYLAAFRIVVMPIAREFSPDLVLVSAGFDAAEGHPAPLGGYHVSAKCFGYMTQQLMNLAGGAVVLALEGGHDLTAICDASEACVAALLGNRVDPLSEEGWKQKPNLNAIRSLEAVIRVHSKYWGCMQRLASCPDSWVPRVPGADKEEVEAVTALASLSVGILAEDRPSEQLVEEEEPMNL

Assay [2] concerns the target T2, Protein deacetylase HDAC6 (Homo sapiens, UniProt Q9UBN7).
T2 sequence (Q9UBN7 whole entry): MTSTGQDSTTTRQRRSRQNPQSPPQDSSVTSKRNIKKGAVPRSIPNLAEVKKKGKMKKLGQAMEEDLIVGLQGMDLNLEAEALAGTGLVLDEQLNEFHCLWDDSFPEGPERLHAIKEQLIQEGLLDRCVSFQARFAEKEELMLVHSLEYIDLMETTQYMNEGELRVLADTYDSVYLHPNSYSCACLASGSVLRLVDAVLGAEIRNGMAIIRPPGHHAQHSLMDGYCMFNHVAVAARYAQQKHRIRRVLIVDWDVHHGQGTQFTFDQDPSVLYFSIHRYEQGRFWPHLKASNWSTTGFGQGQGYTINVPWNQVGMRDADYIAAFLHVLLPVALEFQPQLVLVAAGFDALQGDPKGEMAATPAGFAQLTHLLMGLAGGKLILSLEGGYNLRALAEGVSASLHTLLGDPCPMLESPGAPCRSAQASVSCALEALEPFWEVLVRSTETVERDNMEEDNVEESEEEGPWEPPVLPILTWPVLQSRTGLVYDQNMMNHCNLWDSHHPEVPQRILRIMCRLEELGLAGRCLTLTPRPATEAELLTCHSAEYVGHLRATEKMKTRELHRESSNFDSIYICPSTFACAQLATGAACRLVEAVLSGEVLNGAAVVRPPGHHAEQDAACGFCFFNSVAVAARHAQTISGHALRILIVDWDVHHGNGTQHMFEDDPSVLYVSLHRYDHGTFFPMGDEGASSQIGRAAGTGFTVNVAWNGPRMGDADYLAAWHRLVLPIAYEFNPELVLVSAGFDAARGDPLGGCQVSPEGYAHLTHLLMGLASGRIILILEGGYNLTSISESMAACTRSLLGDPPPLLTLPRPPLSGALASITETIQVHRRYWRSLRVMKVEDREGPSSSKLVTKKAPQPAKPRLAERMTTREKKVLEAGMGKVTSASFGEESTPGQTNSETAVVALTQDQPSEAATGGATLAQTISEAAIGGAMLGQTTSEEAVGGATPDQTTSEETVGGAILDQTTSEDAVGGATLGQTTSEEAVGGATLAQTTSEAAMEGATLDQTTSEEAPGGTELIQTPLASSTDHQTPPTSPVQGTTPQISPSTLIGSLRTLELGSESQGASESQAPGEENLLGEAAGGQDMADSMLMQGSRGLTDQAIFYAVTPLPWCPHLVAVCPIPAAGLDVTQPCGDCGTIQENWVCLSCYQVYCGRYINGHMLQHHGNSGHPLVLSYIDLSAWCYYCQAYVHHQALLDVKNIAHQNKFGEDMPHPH
Kind of assay: Inhibition of recombinant human HDAC6 using Boc-L-Lys(epsilon-acetyl)-AMC as substrate by two-step fluorogenic assay.

Assay [3] addresses Histone deacetylase 3/Nuclear receptor corepressor 2 (HDAC3/NCoR2) (Homo sapiens, UniProt O15379). It counts as protein-complex assay.
Another assay deals with T3, Histone deacetylase 8 (Homo sapiens, UniProt Q9BY41).
T3 sequence (Q9BY41 whole entry): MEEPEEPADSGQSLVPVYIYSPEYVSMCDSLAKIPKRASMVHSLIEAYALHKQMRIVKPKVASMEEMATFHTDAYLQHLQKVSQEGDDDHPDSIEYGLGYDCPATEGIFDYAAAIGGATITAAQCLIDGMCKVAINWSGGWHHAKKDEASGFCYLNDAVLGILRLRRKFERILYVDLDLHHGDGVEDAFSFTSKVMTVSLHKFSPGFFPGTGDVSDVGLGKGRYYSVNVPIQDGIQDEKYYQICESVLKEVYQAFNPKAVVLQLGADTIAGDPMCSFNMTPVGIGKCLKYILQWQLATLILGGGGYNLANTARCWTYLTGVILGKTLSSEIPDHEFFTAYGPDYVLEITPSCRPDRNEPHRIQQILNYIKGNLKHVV

The target of assay [4] is Histone deacetylase 2/Nuclear receptor corepressor 2 (Homo sapiens, UniProt Q92769). Description: Inhibition of recombinant human HDAC2/NCOR2 using Boc-L-Lys(epsilon-acetyl)-AMC as substrate by two-step fluorogenic assay. In kind it is protein-complex assay.

The structures appear in SMILES notation. A value given as a limit tells only on which side of the number the result lay.

Chain of Histone deacetylase 9 (Q9UKV0 whole entry): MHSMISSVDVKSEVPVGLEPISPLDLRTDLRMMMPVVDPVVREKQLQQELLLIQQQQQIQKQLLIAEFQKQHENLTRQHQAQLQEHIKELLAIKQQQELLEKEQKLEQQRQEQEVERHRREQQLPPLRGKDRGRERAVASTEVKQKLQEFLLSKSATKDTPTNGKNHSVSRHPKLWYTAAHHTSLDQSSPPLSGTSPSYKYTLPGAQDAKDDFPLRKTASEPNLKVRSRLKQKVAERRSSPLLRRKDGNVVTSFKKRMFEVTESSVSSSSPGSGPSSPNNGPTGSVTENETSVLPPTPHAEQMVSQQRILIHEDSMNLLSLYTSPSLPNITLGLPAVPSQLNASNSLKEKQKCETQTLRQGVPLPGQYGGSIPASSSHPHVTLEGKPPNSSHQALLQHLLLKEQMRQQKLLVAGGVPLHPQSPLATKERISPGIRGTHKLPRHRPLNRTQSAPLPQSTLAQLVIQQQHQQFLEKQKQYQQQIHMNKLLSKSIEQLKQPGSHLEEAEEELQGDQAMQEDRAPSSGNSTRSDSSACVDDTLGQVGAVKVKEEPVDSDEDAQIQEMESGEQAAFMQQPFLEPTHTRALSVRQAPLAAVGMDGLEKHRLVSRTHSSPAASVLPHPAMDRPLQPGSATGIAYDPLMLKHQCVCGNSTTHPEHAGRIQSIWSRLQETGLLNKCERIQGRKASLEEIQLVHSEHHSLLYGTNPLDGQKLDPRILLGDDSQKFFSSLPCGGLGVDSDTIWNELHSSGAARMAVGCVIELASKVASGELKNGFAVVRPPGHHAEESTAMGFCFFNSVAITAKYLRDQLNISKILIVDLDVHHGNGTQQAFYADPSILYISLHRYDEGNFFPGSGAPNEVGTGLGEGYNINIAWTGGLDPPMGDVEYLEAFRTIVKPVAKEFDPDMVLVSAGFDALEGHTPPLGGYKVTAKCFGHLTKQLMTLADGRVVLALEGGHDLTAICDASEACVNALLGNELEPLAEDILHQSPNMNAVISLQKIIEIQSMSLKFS
Chain of Histone deacetylase 4 (P56524 whole entry): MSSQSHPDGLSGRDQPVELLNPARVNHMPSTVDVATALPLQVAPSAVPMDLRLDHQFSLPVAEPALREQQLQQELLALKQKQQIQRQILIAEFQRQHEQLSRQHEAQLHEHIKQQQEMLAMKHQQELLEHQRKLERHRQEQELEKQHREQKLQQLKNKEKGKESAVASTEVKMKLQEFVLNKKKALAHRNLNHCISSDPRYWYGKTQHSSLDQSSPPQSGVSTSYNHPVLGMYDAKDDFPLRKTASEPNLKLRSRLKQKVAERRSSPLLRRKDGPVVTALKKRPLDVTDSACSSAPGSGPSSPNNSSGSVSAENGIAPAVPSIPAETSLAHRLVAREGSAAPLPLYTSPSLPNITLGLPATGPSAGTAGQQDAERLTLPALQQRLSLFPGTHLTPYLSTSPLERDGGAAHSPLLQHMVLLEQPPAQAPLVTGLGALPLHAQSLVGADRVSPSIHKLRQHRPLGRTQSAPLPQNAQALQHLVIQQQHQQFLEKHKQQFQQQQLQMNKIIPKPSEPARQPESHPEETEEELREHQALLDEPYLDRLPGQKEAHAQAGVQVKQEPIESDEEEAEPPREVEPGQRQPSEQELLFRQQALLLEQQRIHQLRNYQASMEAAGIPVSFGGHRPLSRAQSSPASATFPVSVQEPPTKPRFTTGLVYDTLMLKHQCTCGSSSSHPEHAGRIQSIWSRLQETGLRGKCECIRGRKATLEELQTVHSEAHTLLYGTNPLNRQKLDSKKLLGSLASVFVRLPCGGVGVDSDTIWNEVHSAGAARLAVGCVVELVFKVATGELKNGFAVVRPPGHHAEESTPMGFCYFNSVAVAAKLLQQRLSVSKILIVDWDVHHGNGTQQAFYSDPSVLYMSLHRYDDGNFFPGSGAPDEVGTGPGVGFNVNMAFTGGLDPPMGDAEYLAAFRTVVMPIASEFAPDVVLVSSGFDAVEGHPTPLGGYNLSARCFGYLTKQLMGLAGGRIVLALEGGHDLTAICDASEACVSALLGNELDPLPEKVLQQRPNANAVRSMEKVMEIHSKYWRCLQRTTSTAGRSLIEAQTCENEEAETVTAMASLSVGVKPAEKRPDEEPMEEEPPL
Description for Histone deacetylase 7: Inhibition of recombinant human HDAC7 using Boc-L-Lys(epsilon-trifluoroacetyl)-AMC as substrate by two-step fluorogenic assay

With `C/C=C1\NC(=O)[C@H]2CSSCC/C=C/[C@H](CC(=O)N[C@H](C(C)C)C(=O)N2)OC(=O)[C@H](C(C)C)NC1=O` [ROMIDEPSIN], the IC50 (as a rule, the point on the concentration scale where inhibition reaches its midpoint) is > 50 µM against Histone deacetylase 9, > 50 µM against Histone deacetylase 4, 6.7 µM in assay [1] and > 50 µM on Histone deacetylase 7.

For the molecule `CC[C@H](C)[C@H]1NC(=O)[C@H]2CSSCC/C=C/[C@H](CC(=O)N[C@H](CCSC)C(=O)N2)OC(=O)C[C@@H]1O` [THAILANDEPSIN A], the IC50 was 9.9 µM in assay [2]; 0.087 µM in assay [3]; > 50 µM at Histone deacetylase 9; > 50 µM against Histone deacetylase 4; 7.5 µM in assay [1]; > 50 µM at Histone deacetylase 8. Besides, the 50% inhibitory concentration (IC50) in assay [4] was 39 µM; against Histone deacetylase 7, > 50 µM.

As to `CCCC[C@H]1NC(=O)C[C@H]2/C=C/CCSSC[C@@H](NC1=O)C(=O)N[C@H]([C@@H](C)CC)[C@@H](O)CC(=O)O2` [THAILANDEPSIN B], the IC50 in assay [2] was 11 µM; in assay [3], 0.023 µM; against Histone deacetylase 9 it was > 50 µM; on Histone deacetylase 4, 22 µM; in assay [1] it was 7.7 µM; against Histone deacetylase 8, 30 µM. Besides, the IC50 in assay [4] was 4.5 µM.
